Results taken from patent US20080090893A1, “Medicinal Composition for Prevention of Transition to Operative Treatment for Prostatic Hypertrophy” (Kissei Pharmaceutial Co., Ltd., priority 2004, published 2008).
Where a name gives a salt, the structure may show the parent alone.

Key:
[1] = test system: patients of benign prostatic hyperplasia who are subject to surgical therapy (overall severity severe); experiment: Placebo-controlled, parallel groups-comparing double blind trial, 12 weeks oral administration (I-PSS total score, QOL score); assay type: in vivo
Procedure: Based on the results of a placebo-controlled, parallel groups-comparing double blind trial carried out in patients of benign prostatic hyperplasia, clinical effects of silodosin and tamsulosin hydrochloride in patients who are subject to surgical therapy were evaluated. As the patients who are subject to surgical therapy, patients whose overall severity before administration was “severe” based on the criteria for judging overall severity (Non-patent Reference 3) were extracted.
Objects: 147 patients who are subject to surgical therapy for benign prostatic hyperplasia
Administration method: oral administration for 12 weeks
Administered groups: Silodosin group (4 mg silodosin/once, twice a day, 63 patients), Tamsulosin group (0.2 mg tamsulosin hydrochloride, once a day, 55 patients) and Placebo group (placebo drug, 29 patients).
Primary endpoints: I-PSS total score, QOL score
Criteria for judging overall severity: in the severity of respective judging items shown in Table 1, the overall severity is regarded as “severe” when “severe” is present in 2 items or more. In this connection, the Qmax in the table means maximum flow rate (mL/second), RU means residual urine volume (mL) and PV means estimated prostate volume (mL) by ultrasonic tomography.
I-PSS items questioned • (1) Sensation of residual urine
The scores of (1) to (6) are as follows.
Not at all: 0 point, less than 1 time in 5: 1 point, less than 1 time in 2: 2 points, about 1 time in 2: 3 points, more than 1 time in 2: 4 points, almost always: 5 points. • (7) Nocturia
None: 0 point, 1 time: 1 point, 2 times: 2 points, 3 times: 3 points, 4 times: 4 points, 5 times or more: 5 points.
Very satisfied 0 point, satisfied: 1 point, generally satisfied: 2 points, neither satisfied nor unsatisfied: 3 points, a little unsatisfied: 4 points, unsatisfied: 5 points, very unsatisfied: 6 points.
Regarding the case of patients whose overall severity before administration was severe based on the criteria for judging overall severity (Non-patent Reference 3), changes in I-PSS total score and QOL score at the final evaluation were compared. The results are shown in Table 2 and Table 3, respectively.
Next, the effect of each administration group to improve the severity of I-PSS total score was evaluated in the patients of benign prostatic hyperplasia whose overall severity before administration was severe.

[2] = test system: patients of benign prostatic hyperplasia who are subject to surgical therapy (overall severity moderate and severe); experiment: Long-term administration test, 52 weeks (maximum flow rate Qmax); assay type: in vivo; details: 4 mg silodosin twice a day oral
Description: Based on the results from a long-term administration test in patients of benign prostatic hyperplasia, effects of silodosin on objective symptoms of patients who are subject to surgical therapy were examined. As the patients who are subject to surgical therapy, patients whose overall severities before administration were “moderate” and “severe” according to the criteria for judging overall severity described in the above Table 1 were extracted.
Objects: 229 patients who are subject to surgical therapy for benign prostatic, hyperplasia
Analyzed groups: 101 severe patients (reduced to 2 mg/once in 9 cases among them), 128 moderate patients (reduced to 2 mg/once in 17 cases among them)

[3] = severity of I-PSS total score, severe patients
[4] = overall severity before administration severe, oral, silodosin 4 mg twice a day, tamsulosin hydrochloride 0.2 mg once a day

SMILES | Severity of subjective symptoms at the end, Mild (0-7), number of patients [1, 3] | Severity of subjective symptoms at the end, Moderate (8-19), % of patients [1, 3] | Severity of subjective symptoms at the end, Moderate (8-19), number of patients [1, 3] | Severity of subjective symptoms at the end, Severe (20-35), % of patients [1, 3] | Severity of subjective symptoms at the end, Severe (20-35), number of patients [1, 3] | Maximum flow rate (Qmax), change after 52 weeks (mean ± SD) ([2]; Moderate group) [mL/s] | Maximum flow rate (Qmax), change after 52 weeks (mean ± SD) ([2]; Moderate group, listed as silodosin) [mL/s] | Maximum flow rate (Qmax), change after 52 weeks (mean ± SD) ([2]; Severe group) [mL/s] | Maximum flow rate (Qmax), change after 52 weeks (mean ± SD) ([2]; Severe group, listed as silodosin) [mL/s] | Change in I-PSS at the end Mean ± standard deviation [1, 4] | Change in QOL at the end Mean ± SD [1, 4] | Severity of subjective symptoms at the end, Mild (0-7), % of patients [1, 3]
C[C@H](Cc1cc2c(c(C(N)=O)c1)N(CCCO)CC2)NCCOc1ccccc1OCC(F)(F)F [Silodosin, (−)-1-(3-hydroxypropyl)-5-((2R)-2-{[2-({2-[(2,2,2-trifluoroethyl)oxy]phenyl}oxy)ethyl]amino}propyl)-2,3-dihydro-1H-indole-7-carboxamide] | 24 | (52.4%) | 33 | (9.5%) | 6 | 2.3 ± 5.3 | 2.3 | 3.2 ± 4.9 | 3.2 |  |  | 
CCOc1ccccc1OCCN[C@H](C)Cc1ccc(OC)c(S(N)(=O)=O)c1 [Tamsulosin, tamsulosin hydrochloride] | 12 | (61.8%) | 34 | (16.4%) | 9 |  |  |  |  | −8.6 ± 6.2^3) N.S. | −1.5 ± 1.3^3) N.S. | (21.8%)
